Columns and labels:
Assay in all cases: glucosylation kinetics, Michaelis-Menten
Assay type in all cases: biochemical
UGT72B19 = molecular target: T1, UGT72B19 (Fagopyrum esculentum, UniProt A0A0A1H7P3); conditions: UDP-glucose donor; phosphate buffer pH 8.0; 39 °C
T1 sequence (A0A0A1H7P3 1-474): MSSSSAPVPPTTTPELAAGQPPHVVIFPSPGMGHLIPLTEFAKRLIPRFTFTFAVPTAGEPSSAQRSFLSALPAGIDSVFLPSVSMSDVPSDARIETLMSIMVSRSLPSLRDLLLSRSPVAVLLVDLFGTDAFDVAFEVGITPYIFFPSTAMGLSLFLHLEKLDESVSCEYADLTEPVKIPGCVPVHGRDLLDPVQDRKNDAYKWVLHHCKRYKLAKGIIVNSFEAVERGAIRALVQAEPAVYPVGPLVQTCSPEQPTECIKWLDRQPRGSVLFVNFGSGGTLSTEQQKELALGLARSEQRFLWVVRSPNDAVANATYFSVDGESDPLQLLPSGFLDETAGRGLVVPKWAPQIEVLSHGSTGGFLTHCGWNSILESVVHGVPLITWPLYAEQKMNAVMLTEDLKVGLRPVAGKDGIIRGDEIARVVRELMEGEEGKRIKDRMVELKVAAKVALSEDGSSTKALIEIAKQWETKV

UGT71C1 = molecular target: T2, UGT71C1 (Arabidopsis thaliana, UniProt O82381); conditions: UDP-glucose donor; phosphate buffer pH 8.0; 30 °C
T2 sequence (O82381 1-481): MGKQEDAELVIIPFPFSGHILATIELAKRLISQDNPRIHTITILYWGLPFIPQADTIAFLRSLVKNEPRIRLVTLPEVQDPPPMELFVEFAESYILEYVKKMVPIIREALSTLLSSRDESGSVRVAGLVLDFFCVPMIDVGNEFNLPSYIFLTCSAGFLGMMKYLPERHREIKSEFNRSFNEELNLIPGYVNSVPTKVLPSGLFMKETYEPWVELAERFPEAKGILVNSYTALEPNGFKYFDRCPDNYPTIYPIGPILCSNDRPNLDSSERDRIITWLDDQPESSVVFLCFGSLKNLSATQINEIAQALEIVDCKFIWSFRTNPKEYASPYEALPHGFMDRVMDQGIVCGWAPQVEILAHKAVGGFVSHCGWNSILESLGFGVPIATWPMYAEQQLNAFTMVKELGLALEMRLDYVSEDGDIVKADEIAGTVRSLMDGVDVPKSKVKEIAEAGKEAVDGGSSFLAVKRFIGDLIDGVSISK

UGT72B68 = molecular target: T3, UGT72B68 (Solanum lycopersicum, UniProt D7S016); conditions: UDP-glucose donor; phosphate buffer pH 8.0; 35 °C
T3 sequence (D7S016 1-476): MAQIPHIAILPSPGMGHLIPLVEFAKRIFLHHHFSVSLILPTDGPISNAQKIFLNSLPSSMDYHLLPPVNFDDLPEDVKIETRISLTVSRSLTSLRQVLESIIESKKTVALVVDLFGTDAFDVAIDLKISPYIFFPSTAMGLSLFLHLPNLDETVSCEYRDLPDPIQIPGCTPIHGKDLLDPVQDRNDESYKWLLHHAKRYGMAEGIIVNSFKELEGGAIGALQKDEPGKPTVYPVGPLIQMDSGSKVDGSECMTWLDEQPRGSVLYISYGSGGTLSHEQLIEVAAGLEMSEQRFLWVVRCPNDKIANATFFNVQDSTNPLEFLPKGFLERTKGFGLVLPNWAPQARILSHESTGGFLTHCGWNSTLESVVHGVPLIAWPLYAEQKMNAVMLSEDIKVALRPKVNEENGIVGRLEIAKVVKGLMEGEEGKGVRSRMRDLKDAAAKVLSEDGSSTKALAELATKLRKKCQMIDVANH

SMILES: COC(=O)c1ccccc1N [MANT, methyl anthranilate]
- Km (UGT72B19): 212 ± 19.1 µM
- Km (UGT71C1): 164 ± 22 µM
- Km (UGT72B68): 347 ± 45.7 µM

Reference: article doi:10.1101/2025.05.29.656899v1 (biorxiv, 2025)
